Measured values reported in patent US11319299B2, “Substituted carboxamides as inhibitors of WDR5 protein-protein binding” (PROPELLON THERAPEUTICS INC., priority 2016, dated 2022).

Target: WDR5 (Homo sapiens (Human), UniProt P61964)
Assay: Surface Plasmon Resonance (SPR) assay, KD and residence time
Type: binding
Settings: surface plasmon resonance (SPR) assay; read-out: WDR5 binding affinity (KD)

SMILES	Kd
C[C@@H]1CN(c2cc(F)c(-c3cnc(N4CCOCC4)nc3)cc2NC(=O)c2cocn2)C[C@H](C)N1C [Example 127, N-[4-fluoro-5-(2-morpholin-4-ylpyrimidin-5-yl)-2-[(3R,5S)-3,4,5-trimethylpiperazin-1-yl]phenyl]-1,3-oxazole-4-carboxamide]	> 200 nM
C[C@@H]1CN(c2cc(F)c(C3CCN(C(=O)C(C)(C)C)CC3)cc2NC(=O)c2c[nH]c(=O)cc2C(F)(F)F)C[C@H](C)N1C [Example 244, N-[5-[1-(2,2-dimethylpropanoyl)piperidin-4-yl]-4-fluoro-2-[(3R,5S)-3,4,5-trimethylpiperazin-1-yl]phenyl]-6-oxo-4-(trifluoromethyl)-1H-pyridine-3-carboxamide]	1.97 nM
CCN(C)[C@@H]1CN(c2cc(F)c(-c3cnc(N4CCOCC4)nc3)cc2NC(=O)c2c[nH]c(=O)cc2C(F)(F)F)C[C@H]1F [Example 344, N-[4-fluoro-5-(2-morpholin-4-ylpyrimidin-5-yl)-2-[(3R,4R)-3-[ethyl(methyl)amino]-4-fluoropyrrolidin-1-yl]phenyl]-6-oxo-4-(trifluoromethyl)-1H-pyridine-3-carboxamide]	12.4 nM
C[C@@H]1CN(c2cc(F)c(-c3cncc(C#N)c3)cc2NC(=O)c2c[nH]c(=O)cc2C(F)(F)F)C[C@H](C)N1C [Example 205, N-[5-(5-cyanopyridin-3-yl)-4-fluoro-2-[(3R,5S)-3,4,5-trimethylpiperazin-1-yl]phenyl]-6-oxo-4-(trifluoromethyl)-1H-pyridine-3-carboxamide]	8.15 nM
C[C@@H]1CN(c2cc(F)c(-c3ccc(OCC4CC4)cc3)cc2NC(=O)c2cn(C)c(=O)cc2C(F)(F)F)C[C@H](C)N1C [Example 228, N-[5-[4-(cyclopropylmethoxy)phenyl]-4-fluoro-2-[(3R,5S)-3,4,5-trimethylpiperazin-1-yl]phenyl]-1-methyl-6-oxo-4-(trifluoromethyl)pyridine-3-carboxamide]	7.26 nM
Cc1ncc(C(=O)Nc2cc(-c3cnc(N4CCOCC4)nc3)c(F)cc2N2CCN(C)C(C)C2)s1 (stereo in doubt) [Example 195, N-[4-fluoro-5-(2-morpholin-4-ylpyrimidin-5-yl)-2-[(3R)-3,4-dimethylpiperazin-1-yl]phenyl]-2-methyl-1,3-thiazole-5-carboxamide]	106 nM
C[C@@H]1CN(c2cc(F)c(-c3ccc(N4CCOCC4)nn3)cc2NC(=O)c2c[nH]c(=O)cc2C(F)(F)F)C[C@H](C)N1C [Example 384, N-[4-fluoro-5-(6-morpholin-4-ylpyridazin-3-yl)-2-[(3R,5S)-3,4,5-trimethylpiperazin-1-yl]phenyl]-6-oxo-4-(trifluoromethyl)-1H-pyridine-3-carboxamide]	1.53 nM
CN(C)[C@@H]1CCN(c2cc(F)c(-c3ccc(O)nc3)cc2NC(=O)c2c[nH]c(=O)cc2C(F)(F)F)C1 [Example 237, N-[4-fluoro-5-(6-hydroxypyridin-3-yl)-2-[(3R)-3-(dimethylamino)pyrrolidin-1-yl]phenyl]-6-oxo-4-(trifluoromethyl)-1H-pyridine-3-carboxamide]	9.33 nM
C[C@@H]1CN(c2cc(F)c(-c3ccnc(OCC4CCC4)c3)cc2NC(=O)c2c[nH]c(=O)cc2C(F)(F)F)C[C@H](C)N1C [Example 292, N-[5-[2-(cyclobutylmethoxy)pyridin-4-yl]-4-fluoro-2-[(3R,5S)-3,4,5-trimethylpiperazin-1-yl]phenyl]-6-oxo-4-(trifluoromethyl)-1H-pyridine-3-carboxamide]	4.32 nM

Now from value to compound:

Kd	SMILES
83 nM	C[C@@H]1CN(c2cc(F)c(-c3cnc(N4CCOCC4)nc3)cc2NC(=O)c2cccc(F)c2F)C[C@H](C)N1C [Example 229, 2,3-difluoro-N-[4-fluoro-5-(2-morpholin-4-ylpyrimidin-5-yl)-2-[(3R,5S)-3,4,5-trimethylpiperazin-1-yl]phenyl]benzamide]
8.21 nM	C[C@@H]1CN(c2cc(F)c(-c3cnc(N4CCOCC4)nc3)cc2NC(=O)c2ccc(F)cc2Cl)C[C@H](C)N1C [Example 87, 2-chloro-4-fluoro-N-[4-fluoro-5-(2-morpholin-4-ylpyrimidin-5-yl)-2-[(3R,5S)-3,4,5-trimethylpiperazin-1-yl]phenyl]benzamide]
0.933 nM	C[C@@H]1CN(c2cc(F)c(-c3cnc(N4CCN(C)CC4)nc3)cc2NC(=O)c2ccc(F)cc2C(F)(F)F)C[C@H](C)N1C [Example 379, 4-fluoro-N-[4-fluoro-5-[2-(4-methylpiperazin-1-yl)pyrimidin-5-yl]-2-[(3R,5S)-3,4,5-trimethylpiperazin-1-yl]phenyl]-2-(trifluoromethyl)benzamide]
2.16 nM	C[C@@H]1CN(c2cc(F)c(-c3ccc(O)nc3)cc2NC(=O)c2c[nH]c(=O)cc2C(F)(F)F)C[C@H](C)N1C [Example 157, N-[4-fluoro-5-(6-hydroxypyridin-3-yl)-2-[(3R,5S)-3,4,5-trimethylpiperazin-1-yl]phenyl]-6-oxo-4-(trifluoromethyl)-1H-pyridine-3-carboxamide]
2.71 nM	C[C@@H]1CN(c2cc(F)c(-c3cnc(N4CCOCC4)nc3)cc2NC(=O)c2cc(Cl)c(F)c(Cl)c2)C[C@H](C)N1C [Example 212, 3,5-dichloro-4-fluoro-N-[4-fluoro-5-(2-morpholin-4-ylpyrimidin-5-yl)-2-[(3R,5S)-3,4,5-trimethylpiperazin-1-yl]phenyl]benzamide]
2.43 nM	C[C@@H]1CN(c2cc(F)c(-c3ccc(C#N)nc3)cc2NC(=O)c2c[nH]c(=O)cc2C(F)(F)F)C[C@H](C)N1C [Example 131, N-[5-(6-cyanopyridin-3-yl)-4-fluoro-2-[(3R,5S)-3,4,5-trimethylpiperazin-1-yl]phenyl]-6-oxo-4-(trifluoromethyl)-1H-pyridine-3-carboxamide]
21.2 nM	C[C@@H]1CN(c2cc(F)c(-c3cnc(N4CCOCC4)nc3)cc2NC(=O)c2cc(F)c(F)c(F)c2)C[C@H](C)N1C [Example 296, 3,4,5-trifluoro-N-[4-fluoro-5-(2-morpholin-4-ylpyrimidin-5-yl)-2-[(3R,5S)-3,4,5-trimethylpiperazin-1-yl]phenyl]benzamide]

Same assay, conditions: surface plasmon resonance (SPR); read-out: WDR5 binding affinity (KD)

SMILES	Kd
C[C@H]1CN(c2cc(F)c(C3=CCN(C(=O)OC4(C)CCC4)C3)cc2NC(=O)c2c[nH]c(=O)cc2C(F)F)CCN1C [Example 631, 1-Methylcyclobutyl (S)-3-(5-(4-(difluoromethyl)-6-oxo-1,6-dihydropyridine-3-carboxamido)-4-(3,4-dimethylpiperazin-1-yl)-2-fluorophenyl)-2,5-dihydro-1H-pyrrole-1-carboxylate]	2.65 nM
CNC(=O)c1cc(-c2cc(NC(=O)c3c[nH]c(=O)cc3C(F)F)c(N3CCN(C)C(C)C3)cc2F)ccc1F (stereo in doubt) [Example 598, 4-(difluoromethyl)-N-[4-fluoro-5-[4-fluoro-3-(methylcarbamoyl)phenyl]-2-[(3R)-3,4-dimethylpiperazin-1-yl]phenyl]-6-oxo-1H-pyridine-3-carboxamide]	1.51 nM
C[C@@H]1CN(c2cc(F)c(-c3ccc4ncn(C)c4c3)cc2NC(=O)c2cn(C)c(=O)cc2C(F)F)C[C@H](C)N1C [Example 681, 4-(difluoromethyl)-N-[4-fluoro-5-(3-methylbenzimidazol-5-yl)-2-[(3R,5S)-3,4,5-trimethylpiperazin-1-yl]phenyl]-1-methyl-6-oxopyridine-3-carboxamide]	39.3 nM
C[C@@H]1CN(c2cc(F)c(-c3ccnc(C#N)n3)cc2NC(=O)c2c[nH]c(=O)cc2C(F)(F)F)C[C@H](C)N1C [Example 539, N-[5-(2-cyanopyrimidin-4-yl)-4-fluoro-2-[(3R,5S)-3,4,5-trimethylpiperazin-1-yl]phenyl]-6-oxo-4-(trifluoromethyl)-1H-pyridine-3-carboxamide]	2.56 nM
CC1CN(c2cc(F)c(C3=CCCN(C(=O)OC4CC(F)(F)C4)C3)cc2NC(=O)c2c[nH]c(=O)cc2C(F)F)CCN1C (stereo in doubt) [Example 705, (3,3-difluorocyclobutyl) 5-[5-[[4-(difluoromethyl)-6-oxo-1H-pyridine-3-carbonyl]amino]-2-fluoro-4-[(3R)-3,4-dimethylpiperazin-1-yl]phenyl]-3,6-dihydro-2H-pyridine-1-carboxylate]	2.02 nM
C[C@@H]1CN(c2cc(F)c(-c3ccc4ncsc4c3)cc2NC(=O)c2c[nH]c(=O)cc2C(F)(F)F)C[C@H](C)N1C [Example 679, N-[5-(1,3-benzothiazol-6-yl)-4-fluoro-2-[(3R,5S)-3,4,5-trimethylpiperazin-1-yl]phenyl]-6-oxo-4-(trifluoromethyl)-1H-pyridine-3-carboxamide]	2.97 nM
C[C@@H]1CN(c2cc(F)c(-c3ccc(C(N)=O)c(F)c3)cc2NC(=O)c2cn(C)c(=O)cc2C(F)(F)F)C[C@H](C)N1C [Example 590, N-[5-(4-carbamoyl-3-fluorophenyl)-4-fluoro-2-[(3R,5S)-3,4,5-trimethylpiperazin-1-yl]phenyl]-1-methyl-6-oxo-4-(trifluoromethyl)pyridine-3-carboxamide]	3.32 nM
CC1CN(c2cc(F)c(-c3ccc(C(N)=O)c(F)c3)cc2NC(=O)c2cn(C)c(=O)cc2C(F)F)CCN1C (stereo in doubt) [Example 652, N-[5-(4-carbamoyl-3-fluorophenyl)-4-fluoro-2-[(3R)-3,4-dimethylpiperazin-1-yl]phenyl]-4-(difluoromethyl)-1-methyl-6-oxopyridine-3-carboxamide]	5.29 nM

The next lines start with the values.

Kd	SMILES
0.977 nM	C[C@H]1CN(c2cc(F)c(-c3cnc(N4CCOC[C@@H]4C)nc3)cc2NC(=O)c2cn(C)c(=O)cc2C(F)(F)F)CCN1C (racemic) [Example 608, N-[4-fluoro-2-[(3R)-3,4-dimethylpiperazin-1-yl]-5-[2-[(3R)-3-methylmorpholin-4-yl]pyrimidin-5-yl]phenyl]-1-methyl-6-oxo-4-(trifluoromethyl)pyridine-3-carboxamide]
4.93 nM	C[C@@H]1CN(c2ncc(-c3cc(NC(=O)c4cn(C)c(=O)cc4C(F)F)c(N4C[C@@H](C)N(C)[C@@H](C)C4)cc3F)cn2)CCO1 [Example 461, 4-(difluoromethyl)-N-[4-fluoro-5-[2-[(2R)-2-methylmorpholin-4-yl]pyrimidin-5-yl]-2-[(3R,5S)-3,4,5-trimethylpiperazin-1-yl]phenyl]-1-methyl-6-oxopyridine-3-carboxamide]
